# Measurements from PMC6934184, “Selective DNA-PKcs inhibition extends the therapeutic index of localized radiotherapy and chemotherapy” (The Journal of Clinical Investigation, 2019).
# Target: T1, MUSK (Homo sapiens, UniProt O15146)
# T1 construct: purchased Thermo Fisher Scientific (Life Technologies) SelectScreen
# Assay: SelectScreen Z'LYTE
# Format: biochemical
# Summary of the method: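 Percent values come from Thermo SelectScreen profiling of NU5455, combining activity and binding assays. CSF1R was run in Z'LYTE format at Km app ATP, and CAMK1 in Adapta format with ATP listed at 10.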
# T1 sequence (O15146 24-869): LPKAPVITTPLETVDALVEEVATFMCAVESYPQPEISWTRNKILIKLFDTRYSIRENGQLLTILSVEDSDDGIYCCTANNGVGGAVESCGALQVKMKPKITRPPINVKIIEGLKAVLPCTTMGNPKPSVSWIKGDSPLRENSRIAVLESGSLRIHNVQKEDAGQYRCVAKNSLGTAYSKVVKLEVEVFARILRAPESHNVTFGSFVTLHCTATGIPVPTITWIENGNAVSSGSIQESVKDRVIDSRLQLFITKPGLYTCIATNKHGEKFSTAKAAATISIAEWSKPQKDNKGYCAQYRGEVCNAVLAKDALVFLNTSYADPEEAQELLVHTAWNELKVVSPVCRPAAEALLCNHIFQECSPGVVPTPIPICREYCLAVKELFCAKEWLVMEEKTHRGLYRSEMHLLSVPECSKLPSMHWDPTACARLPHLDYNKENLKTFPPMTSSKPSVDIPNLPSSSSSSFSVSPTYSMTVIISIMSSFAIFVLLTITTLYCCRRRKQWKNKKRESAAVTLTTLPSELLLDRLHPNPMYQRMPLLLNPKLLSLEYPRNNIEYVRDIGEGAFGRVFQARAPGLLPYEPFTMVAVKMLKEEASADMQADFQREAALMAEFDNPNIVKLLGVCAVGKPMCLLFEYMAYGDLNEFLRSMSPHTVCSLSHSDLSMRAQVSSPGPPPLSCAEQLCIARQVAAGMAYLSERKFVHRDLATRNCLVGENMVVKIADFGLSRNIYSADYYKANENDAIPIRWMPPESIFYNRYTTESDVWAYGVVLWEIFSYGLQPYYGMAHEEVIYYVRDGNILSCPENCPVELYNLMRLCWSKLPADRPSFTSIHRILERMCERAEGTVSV
compound,measurement,value
CN(C(=O)CN1CCOCC1)c1ccc2sc3c(-c4cccc5c(=O)cc(N6CC7CCC(C6)O7)oc45)cccc3c2c1 [NU5455],inhibition at 1 µM,10.3%
